{
  "source": "patent US20220054398A1",
  "about": "“USE OF RUBUS FRUTICOSUS EXTRACT FOR MANUFACTURING A SKINCARE COMPOSITION” (TCI CO., LTD., priority 2020, published 2022)",
  "test_system": "Mouse melanoma cell B16F10",
  "assay": "Melanin production after blue light exposure, OD450",
  "format": "cell-based",
  "details": "B16F10 cells, 0.25 mg/mL 24 hours, blue light 3 hours, then 48 hours",
  "method": "The changes in melanin content of melanoma cell line B16F10 after being treated with Rubus fruticosus extract are determined by an ELISA reader (enzyme-linked immunosorbent assay reader). Materials and Instruments: • 1. Cell line: Mouse melanoma cell B16F10, purchased from American Type Culture Collection (ATCC®, No. 6475), hereinafter referred to as B16F10 cells. • 2. Medium: Dulbecco's modified […] (DMEM, purchased from Gibco, Cat. 12100-038) is supplemented with additional ingredients to contain 1 vol % antibiotic solution (Antibiotic Antimycotic Solution, purchased from Gibco, 15240-062) and 10 vol % FBS (fetal bovine Serum, purchased from Gibco, 10437-028). Gibco, 15240-062). • 3. Phosphate Buffer Solution (PBS solution): purchased from Gibco, Product No. […]. • 4. Prepare a solution of 1N NaOH (Sigma, Product No. 221465) in secondary distilled water. • 5. ELISA reader (purchased from BioTek, product number FLx 800). • 6. […] Transfer 100 μL of the sample to be tested into a 96-well plate and measure the absorbance value of the cell solution at 450 nm using an ELISA reader. The relative melanin expressions of the experimental and control groups are calculated according to the following formula: Relative melanin expression (%)=(OD 450 value of each group/OD450 value of the control group)×100%.",
  "data": [
    {"smiles": "O=c1cc(CO)occ1O", "note": "[kojic acid, Kojic acid]", "values": [
      {"measurement": "melanin production compared with the control group", "value": 67.42, "unit": "%"}
    ]}
  ]
}
